# Test results as given in US20160038474A1, “COMPOSITIONS AND METHODS FOR THE MODULATION OF HEMOGLOBIN (S)” (GLOBAL BLOOD THERAPEUTICS, INC., priority 2013, published 2016).
# Tests used:
# [1] = Mouse intravenous pharmacokinetics and blood/plasma partitioning; type: in vivo; conditions: mice; for blood plasma ratio: whole blood and plasma, iv
# From the text: The ability of compound 12 to partition preferentially in red blood cells has also been confirmed in mice treated intravenously. […] Analogous to the measurements in rats, the volume of distribution (Vss) was low in mice (0.10). Thus, compound 12 is not expected to broadly distribute into extravascular space in mice.
# HbS = HbS (Homo sapiens, UniProt P68871+P69905, E7V); assay: 96-well oxygen dissociation assay (ODA); type: biochemical
# [2] = target: T1, whole blood from homozygous sickle cell patients, Hb(S) (Homo sapiens, UniProt P68871+P69905, E7V); assay: Reverse Hemox assay (oxygen equilibrium curves), whole blood; type: cell-based; conditions: for Whole Blood OEC (delta p50%): [Hb] 1 mM
# T1 construct: Oxygen Equilibrium Curves (OEC) of whole blood before and after treatment; from tissue; host or cells: whole blood (or washed red blood cells) of homozygous sickle cell patients
# Protocol: Oxygen Equilibrium Curves (OEC) of whole blood before and after treatment with different concentrations of compounds 12, 22 and 23 were performed as follows using a HEMOX analyzer (TCS Scientific, New Hope, Pa.). Blood samples from homozygous sickle cell patients were obtained though the Hemoglobinopathy Center at Children's Hospital Oakland Research Institute (CHORI) with Institutional Review Board approval. The hematocrit was adjusted to 20% using autologous plasma and the blood samples were incubated for 1 hour at 37° C. in absence or presence of compounds. 100 μl of these samples were added to 5 mL of Hemox butter (30 mM TES, 130 mM NaCl, 5 mM KCl, pH=7.4) at 37° C. and then transferred to the Hemox sample chamber. The samples were saturated with oxygen by flushing with compressed air for 10 minutes. The samples were then flushed with pure nitrogen and the respective absorbances of oxy- and deoxy-Hb are recorded as a function of the solution pO2. The oxygen equilibrium data were then fitted to the Hill Model to obtain values for p50. The deoxygenation curves for both whole blood alone (control) and whole blood in the presence of the compound were collected with the TCS software.
# Results: Table 3 below lists the delta p50% values where “+” indicates a delta p50% of between 0 and 29, “++” indicates a delta p50% of between 30 and 50, and “+++” indicates a delta p50% of 50 or greater.
# Reverse hemox assay was performed essentially as described in Example 2, above, using either washed red blood cells or whole blood.
# HbS/A = target: T2, HbS/A (Homo sapiens, UniProt P68871+P69905, E7V); assay: R/T assay (relaxed-to-tense transition); type: biochemical; conditions: HbS/A 3 μM
# T2 construct: A mixture of HbS/A was purified from blood obtained from homozygous sickle cell patients; from tissue; host or cells: blood of homozygous sickle cell patients
# Protocol: This ability can be expressed as a “delta R” value (i.e., the change in the time-period of the R state after hemoglobin is treated with a compound, as compared to the period without treatment with the compound). Delta R is the % R to remaining after the compounds treatment compared with no treatment (e.g., if R % without treatment is 8% while with treatment with a target compound is 48% R at 30 μM, then % R is 40% for that compound.
# A mixture of HbS/A was purified from blood obtained from homozygous sickle cell patients though the Hemoglobinopathy Center at Children's Hospital Oakland Research Institute (CHORI) with Institutional Review Board approval. HbS/A (at a final concentration of 3 μM) was incubated for 1 hr at 37° C. in presence or absence of compounds in […] potassium phosphate buffer, pH=7.4 and 30 μM 2,3 diphosphoglycerate (DPG) in 96 well plates in a final volume of 160 μl. Compounds were added at different concentrations (3 μM to 100 μM final concentrations). Plates were covered with a Mylar film. After incubation was completed the Mylar cover was removed and the plates were placed in a Spectrostar Nano plate reader previously heated at 37° C. Five minutes later, N2 (flow rate=20 L/min) was flowed through the spectrophotometer. Spectroscopic measurements (300 nm to 700 nm) were taken every 5 min for 2 hours. Data analysis was performed by using linear regression from the data retrieved for all wavelengths.
# [3] = Rat pharmacokinetics and blood/plasma partitioning (Example 1); type: in vivo, Rats (Sprague-Dawley); conditions: for blood plasma ratio: whole blood and plasma, oral, 10 mg/kg
# Protocol: This experiment was established and used in order to assess the pharmacokinetic (PK) properties of the compounds.
# Sample collection and data analysis: Rats (Sprague-Dawley, male, 8-12[…] weeks old) were dosed with one of three compounds corresponding to compound 12, compound 22 or compound 23. The rats received oral (10 mg/kg) or intravenous (1 mg/kg) doses of the compound. Rats were fasted overnight before the experiments and provided with food after the 2 hour sampling time point.
# Blood samples were collected at different time points. Blood was anti-coagulated by 3.2% TSC (trisodium citrate) and a portion was separated into plasma fraction by centrifugation and removal of blood cells. Plasma and lysed blood samples were anal) zed for drug concentration using LC-MS/MS. PK parameters were calculated by non compartmental analysis of the concentration-time profiles using WinNonLin software (Pharsight, Mountain View, Calif.). Apparent elimination half-life (t1/2) values were calculated as ln(2)/k. Area under the concentration-time curve (AUC) values were estimated using the linear trapezoidal method. AUClast values were calculated from the dosing time to the last measurable concentration. AUCinf values were calculated as the sum of the corresponding AUClast and the ratio of the last detectable concentration divided by k. Plasma clearance (Cl) is calculated from Dose/AUCinf. Volume of distribution at steady state (Vss) is calculated from Mean Residence Timeinf×Clss. Maximum concentration (Cmax) and time to Cmax (Tmax) was recorded as observed. The blood/plasma partitioning ratio was calculated at each experimental time point.
# red blood cells = assay: Sickling assay under hypoxia; type: cell-based; conditions: for Sickling (% sickled): [HbS] ~1 mM (20% HCT), No Cmpd 85
# Protocol: For sickling experiments, red blood cells were pre-incubated with compound 12 or 5-HMF, then subjected to hypoxia (pO2 of ˜3 mmHg) in a 37° C. humidified chamber for 0.5 hr and subsequently imaged using a light microscope. The percentage of sickled cells in each image was calculated using CellVigene software.
# [4] = ratio of compound 12 to Hb of 1:3
smiles,measurement,setting,value
"CC(C)n1nccc1-c1ncccc1COc1cccc(O)c1C=O [Compound 12, 2-hydroxy-6-[[2-(2-propan-2-ylpyrazol-3-yl)pyridin-3-yl]methoxy] benzaldehyde]",Vd,"[1]; in vivo, read-out: volume of distribution (Vss)",0.1 L/kg
same,blood plasma ratio,[1]; read-out: ratio of blood/plasma at overall exposure,30
same,blood plasma ratio,[1]; read-out: ratio of blood/plasma at peak in vivo concentration,15.4
same,Hb in ODA (Δoxy state),"HbS; [Hb] 3 μM, [cmp] 1 μM",16
same,improvement in oxygen affinity for Hb,HbS; [4],two-fold
same,more oxygenated Hb present,HbS; [4],16%
same,Reverse Hemox delta p50% (class),"[2]; 1 mM compound, whole blood, hematocrit 20%",+++ (a delta p50% of 50 or greater)
same,Reverse Hemox delta p50%,"[2]; 1 mM compound, whole blood, hematocrit 20%, 1 hour 37° C.",79.83%
same,Whole Blood OEC (delta p50%),[2]; [cmp] 1 mM,80%
same,Whole Blood OEC (delta p50%),[2]; [cmp] 3 mM,>80%
same,p50,"[2]; whole blood from sickle cell disease patients, control blood p50 30 mm Hg",6 mm Hg
same,R-T delta R,HbS/A; 9 μM compound,65.45
same,R-T delta R (class),HbS/A; 9 μM compound,+++ (a delta R of 50 or greater)
same,R-T delta R,HbS/A; 10 μM compound,62.75
same,R-T delta R (class),HbS/A; 10 μM compound,+++ (a delta R of 50 or greater)
same,"level of compound in blood versus plasma, overall exposure",[3]; dosed orally,55 fold
same,relative proportion in blood (as compared to plasma) at peak concentration (Cmax),[3]; dosed orally,21 fold
same,Vd,"[3]; male, Sprague-Dawley, in vivo, oral 10 mg/kg or intravenous 1 mg/kg, read-out: Vss",0.14 L/kg
same,bioavailability,"[3]; male, Sprague-Dawley, in vivo, oral 10 mg/kg, intravenous 1 mg/kg",68.8%
same,clearance,"[3]; male, Sprague-Dawley, plasma, oral 10 mg/kg or intravenous 1 mg/kg",0.11 mL/min/kg
same,blood plasma ratio,"[3]; male, Sprague-Dawley, read-out: Blood/plasma (Ratio of exposure AUCINF)",55
same,blood plasma ratio,"[3]; male, Sprague-Dawley, read-out: Blood/plasma (Ratio of peak concentration)",21
same,red blood cell/plasma ratio at the peak concentration,[3]; ratio to 1 into the erythrocytes,70
same,Sickling (% sickled),red blood cells; [Cmpd] 1 mM,41%
same,Sickling (% sickled),red blood cells; [Cmpd] 2 mM,33%
same,Sickling (% sickled),red blood cells; [Cmpd] 5 mM,28%
same,sickling of RBCs (in words),"red blood cells; hypoxia 0.5 hr, 37° C.",prevented sickling of RBCs under hypoxia
